{"source": "patent US20100021895A1", "about": "“Vectors for Inducing Homozygous Mutations and Methods of Using Same” (priority 2006, published 2010)", "test_system": "mouse embryonic stem cell clones, each containing a neomycin resistance gene (Neo) inserted by the GTR1.3 gene trap retrovirus", "assay": "Carcinogen-induced LOH: frequency of colony formation in 2.0 mg/ml G418", "assay_type": "cell-based", "conditions": "for fold increase of frequency of colony formation: 2 mg/ml G418 0.25 mM HU", "experimental": "Carcinogen-induced LOH was measured in a panel of 53 mouse embryonic stem cell clones, each containing a neomycin resistance gene (Neo) inserted into a different cellular gene (FIG. 9) by the GTR1.3 gene trap retrovirus. Gene entrapment by GTR1.3 involves selection for inserted Neo sequences that can splice to the 3′ ends of cellular genes (Lin et al.,). The disrupted genes were identified by sequencing Neo-gene fusion transcripts and were localized on the mouse genome. Previous studies have shown that cells homozygous for GTR1.3-induced mutations can be selected from heterozygous cells simply by selecting for resistance to higher concentrations of G418, a method first shown to select for homozygous mutations induced by gene targeting (15). Mitotic recombination appears to be the preferred mechanism of spontaneous LOH involving Neo genes inserted in ES cells (17) and LOH involving other genes and cell types in vivo (12, 13). LOH doubles the number of Neo genes per cell and thus allows moderately resistant cells to acquire resistance to higher concentrations of G418. The frequencies of spontaneous LOH measured at the 53 different sites ranged from 1.3×10^−5 to 1.2×10^−4 (Table 3), similar to those reported for other inserted neomycin resistance genes (15, 17) in ES cells and for loci such as TK and APRT in other cell types (12, 13).\nA variety of chemical agents were tested for their ability to enhance the frequencies at which mutant cells survive in 2.0 mg/ml G418. Methyl-nitrosurea (MNU) is an alkylating agent that produces a variety of mono-methylated DNA adducts, hydroxyurea (HU) stalls DNA replication complexes, doxorubicin interferes with DNA synthesis, methothrexate is a competitive inhibitor of dihydrofolate reductase but is not genotoxic, diepoxybutane and mitomycin C induce inter-strand DNA crosslinks, UV irradiation causes intra- and inter-strand pyrimidine dimmers, and ethidium bromide intercalates between DNA strands to damage DNA (For additional information about these agents see http://toxnet.nlm.nih.gov and http://lisntweb.swan.ac.uk/cmgt/index.htm). […] The fold-increase for MNU and HU ranged from 39-123 and 18-68, respectively (Table 3). The optimal concentrations of each agent to stimulate colony formation with minimal toxicity (<5% loss of cell viability) were determined in advance (FIG. 13). […] Each of these agents was tested two or more times on at least 25 entrapment lines.\nSerially diluted cells were plated onto 150 mm plates containing drug-free media and allowed to attach overnight. Unattached cells were removed and media containing the indicated concentrations of methyl-nitrosourea, hydroxyurea, ethidium bromide, doxorubicin, methotrexate, diepoxybutane, or mitomycin C was put onto cells for 4 hours (or cells were exposed to ultraviolet light in the absence of media and allowed to recover in drug-free media for 4 hours). Cells were then rinsed twice with drug-free media and selection media containing 0.0, 0.3, or 2.0 mg/ml G418 was put onto cells. After 12 days of selection, the number of colonies surviving was counted and the frequency of colony formation was determined by dividing the number of colonies obtained from 2.0 mg/ml G418 selection to that obtained from parallel experiments with 0.3 mg/ml G418 selection. TK gene loss was assessed following selection in media containing 2 μg/ml gancyclovir.\nTable 3. The frequency of colony formation in high concentrations of G418. The frequency of colony formation is listed for all 53 clones examined. Frequency was determined by dividing the number of colonies surviving 2.0 mg/ml G418 selection to the number surviving parallel experiments with 0.3 mg/ml G418 selection, and is the average of at least 3 independent experiments for each clone. Standard deviations, which ranged from 5 to 70% of the mean values, have been omitted for clarity. […]", "data": [{"smiles": "NC(=O)NO", "note": "[HU, hydroxyurea]", "values": [{"measurement": "fold-increase of colonies surviving in high G418, range over clones", "setting": "0.25 mM HU, Table 3 clones", "result": "18-68 fold"}, {"measurement": "number of colonies surviving in high G418", "setting": "0.5 mM MNU or 0.25 mM HU (FIG. 10)", "result": "dramatically increased"}, {"measurement": "fold increase of frequency of colony formation", "setting": "clone b2p1-a5 (12C3)", "result": "(+35-fold)"}, {"measurement": "fold increase of frequency of colony formation", "setting": "clone b2p1-a9 (2H1)", "result": "(+36-fold)"}, {"measurement": "fold increase of frequency of colony formation", "setting": "clone b2p1-b4 (9E1)", "result": "(+32-fold)"}, {"measurement": "fold increase of frequency of colony formation", "setting": "clone b2p1-b9 (4B1)", "result": "(+38-fold)"}, {"measurement": "fold increase of frequency of colony formation", "setting": "clone b2p1-c6 (19A)", "result": "(+22-fold)"}, {"measurement": "fold increase of frequency of colony formation", "setting": "clone b2p1-d3 (19C1)", "result": "(+28-fold)"}, {"measurement": "fold increase of frequency of colony formation", "setting": "clone b2p1-d8 (4D2.3)", "result": "(+40-fold)"}, {"measurement": "fold increase of frequency of colony formation", "setting": "clone b2p1-d9 (7E3)", "result": "(+38-fold)"}, {"measurement": "fold increase of frequency of colony formation", "setting": "clone b2p1-d10 (9A1)", "result": "(+19-fold)"}, {"measurement": "fold increase of frequency of colony formation", "setting": "clone b2p1-e3 (4D2.3)", "result": "(+32-fold)"}, {"measurement": "fold increase of frequency of colony formation", "setting": "clone b2p1-e10 (19C1)", "result": "(+25-fold)"}, {"measurement": "fold increase of frequency of colony formation", "setting": "clone b2p1-f3 (17E1.3)", "result": "(+47-fold)"}, {"measurement": "fold increase of frequency of colony formation", "setting": "clone b2p1-f10 (3F2.1)", "result": "(+33-fold)"}, {"measurement": "fold increase of frequency of colony formation", "setting": "clone b2p1-f12 (1H5)", "result": "(+25-fold)"}, {"measurement": "fold increase of frequency of colony formation", "setting": "clone b2p1-h1 (7A2)", "result": "(+21-fold)"}, {"measurement": "fold increase of frequency of colony formation", "setting": "clone b2p1-h5 (1H5)", "result": "(+42-fold)"}, {"measurement": "fold increase of frequency of colony formation", "setting": "clone b2p1-h8 (6A3.3)", "result": "(+42-fold)"}, {"measurement": "fold increase of frequency of colony formation", "setting": "clone b3p1-h1 (18E2)", "result": "(+42-fold)"}, {"measurement": "fold increase of frequency of colony formation", "setting": "clone b3p3-a4 (4A5)", "result": "(+33-fold)"}, {"measurement": "fold increase of frequency of colony formation", "setting": "clone b3p3-a9 (4A5)", "result": "(+18-fold)"}, {"measurement": "fold increase of frequency of colony formation", "setting": "clone b3p3-b6 (3F1)", "result": "(+18-fold)"}, {"measurement": "fold increase of frequency of colony formation", "setting": "clone b3p3-c8 (14A3)", "result": "(+32-fold)"}, {"measurement": "fold increase of frequency of colony formation", "setting": "clone b3p3-c12 (5G2)", "result": "(+20-fold)"}, {"measurement": "fold increase of frequency of colony formation", "setting": "clone b3p3-d4 (1C3)", "result": "(+28-fold)"}, {"measurement": "fold increase of frequency of colony formation", "setting": "clone b3p3-d8 (1C2)", "result": "(+68-fold)"}, {"measurement": "fold increase of frequency of colony formation", "setting": "clone b3p3-d9 (4E2)", "result": "(+22-fold)"}, {"measurement": "fold increase of frequency of colony formation", "setting": "clone b3p3-g6 (10C2)", "result": "(+29-fold)"}, {"measurement": "fold increase of frequency of colony formation", "setting": "clone b3p3-g10 (4E1)", "result": "(+24-fold)"}, {"measurement": "fold increase of frequency of colony formation", "setting": "clone b3p3-h2 (19C1)", "result": "(+26-fold)"}, {"measurement": "fold increase of frequency of colony formation", "setting": "clone b3p3-h4 (5E2)", "result": "(+50-fold)"}, {"measurement": "fold increase of frequency of colony formation", "setting": "clone b3p3-h8 (19A)", "result": "(+37-fold)"}, {"measurement": "fold increase of frequency of colony formation", "setting": "clone b3p4-a1 (4A4)", "result": "(+25-fold)"}, {"measurement": "fold increase of frequency of colony formation", "setting": "clone b3p4-a5 (3B)", "result": "(+36-fold)"}, {"measurement": "fold increase of frequency of colony formation", "setting": "clone b3p4-b1 (3A2)", "result": "(+44-fold)"}, {"measurement": "fold increase of frequency of colony formation", "setting": "clone b3p4-b2 (11B1.3)", "result": "(+40-fold)"}, {"measurement": "fold increase of frequency of colony formation", "setting": "clone b3p4-b8 (4C6)", "result": "(+27-fold)"}, {"measurement": "fold increase of frequency of colony formation", "setting": "clone b3p4-b12 (3A1)", "result": "(+24-fold)"}, {"measurement": "fold increase of frequency of colony formation", "setting": "clone b3p4-c1 (17B3)", "result": "(+50-fold)"}, {"measurement": "fold increase of frequency of colony formation", "setting": "clone b3p4-c2 (8C3)", "result": "(+50-fold)"}, {"measurement": "fold increase of frequency of colony formation", "setting": "clone b3p4-c9 (15F2)", "result": "(+20-fold)"}, {"measurement": "fold increase of frequency of colony formation", "setting": "clone b3p4-c12 (17E2)", "result": "(+33-fold)"}, {"measurement": "fold increase of frequency of colony formation", "setting": "clone b3p4-d10 (14E5)", "result": "(+54-fold)"}, {"measurement": "fold increase of frequency of colony formation", "setting": "clone b3p4-d12 (1C3)", "result": "(+51-fold)"}, {"measurement": "fold increase of frequency of colony formation", "setting": "clone b3p4-e1 (2G3)", "result": "(+32-fold)"}, {"measurement": "fold increase of frequency of colony formation", "setting": "clone b3p4-e3 (15D3)", "result": "(+41-fold)"}, {"measurement": "fold increase of frequency of colony formation", "setting": "clone b3p4-e7 (12C1)", "result": "(+44-fold)"}, {"measurement": "fold increase of frequency of colony formation", "setting": "clone b3p4-f2 (4E1)", "result": "(+36-fold)"}, {"measurement": "fold increase of frequency of colony formation", "setting": "clone b3p4-f6 (7E3)", "result": "(+26-fold)"}, {"measurement": "fold increase of frequency of colony formation", "setting": "clone b3p4-f10 (8A4)", "result": "(+36-fold)"}, {"measurement": "fold increase of frequency of colony formation", "setting": "clone b3p4-g3 (1C3)", "result": "(+34-fold)"}, {"measurement": "fold increase of frequency of colony formation", "setting": "clone b3p4-g8 (10C1)", "result": "(+34-fold)"}, {"measurement": "fold increase of frequency of colony formation", "setting": "clone b3p4-g9 (2C2)", "result": "(+32-fold)"}, {"measurement": "fold increase of frequency of colony formation", "setting": "clone b3p4-h11 (8A1.1)", "result": "(+33-fold)"}, {"measurement": "survival of mutant ES cells in media containing 2.0 mg/ml G418", "setting": "ES cells heterozygous for Xrcc5 entrapment mutation, 4 hours with 0.5 mM methyl-nitrosourea, 0.25 mM hydroxyurea or 100 ng/ml diepoxybutane", "result": "enhances the survival"}, {"measurement": "overall extent of LOH induced", "setting": "single exposure to non-toxic levels", "result": "~1 % of the genome"}]}]}
